From patent US10940139B2, “Compounds that interact with the Ras superfamily for the treatment of cancers, inflammatory diseases, rasopathies, and fibrotic disease” (Shy Therapeutics LLC, priority 2017, dated 2021)
Like-named read-outs stand apart in the source and are kept apart here.

Columns and labels:
Assay in all cases: Ras GTP binding domain inhibition assay (labeled GTP)
[1] = molecular target: KRas G12D mutant protein (Homo sapiens (Human), UniProt P01116, G12D); settings: 20 μM compound
KRas G12D mutant protein, sequence (P01116-2 other isoform, or with tags, fused parts or gaps G12D): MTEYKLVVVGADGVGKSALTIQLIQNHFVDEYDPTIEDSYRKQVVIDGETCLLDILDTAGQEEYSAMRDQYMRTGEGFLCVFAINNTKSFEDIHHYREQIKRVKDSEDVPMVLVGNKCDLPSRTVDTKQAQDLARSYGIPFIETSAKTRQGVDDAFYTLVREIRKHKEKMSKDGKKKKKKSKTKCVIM

[2] = molecular target: KRas Q61H mutant (Homo sapiens (Human), UniProt P01116, Q61H); settings: 20 μM compound
KRas Q61H mutant, sequence (P01116-2 other isoform, or with tags, fused parts or gaps Q61H): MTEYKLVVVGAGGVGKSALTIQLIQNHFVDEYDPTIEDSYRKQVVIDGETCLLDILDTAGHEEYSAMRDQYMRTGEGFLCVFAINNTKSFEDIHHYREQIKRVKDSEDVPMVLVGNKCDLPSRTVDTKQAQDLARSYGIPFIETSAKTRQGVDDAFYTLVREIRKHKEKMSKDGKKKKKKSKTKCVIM
Outline: (§1)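 Ni-plate capture of His-KRas (3-10 μg/ml, o/n, 4° C); Tris pH 7.5/MgCl2/DTT buffer, 1% DMSO. Cpd 20 μM or titration, 3 h RT. Cy3/Cy5-GTP 45 min RT, wash, fluorescence of bound GTP.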

[3] = molecular target: KRas G12D/Q61H double mutant (Homo sapiens (Human), UniProt P01116, G12D/Q61H); settings: for inhibition at 20 µM: 20 μM compound; for IC50: serial dilution, read-out: KRas G12D Q61H (classes E-H, IC50)
KRas G12D/Q61H double mutant, sequence (P01116-2 other isoform, or with tags, fused parts or gaps G12D/Q61H): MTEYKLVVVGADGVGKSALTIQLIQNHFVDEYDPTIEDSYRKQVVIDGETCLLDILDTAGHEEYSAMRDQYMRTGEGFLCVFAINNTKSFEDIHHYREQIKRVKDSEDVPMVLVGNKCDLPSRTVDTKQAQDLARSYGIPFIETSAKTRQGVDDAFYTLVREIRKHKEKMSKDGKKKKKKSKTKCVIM
Outline: as §1

[4] = molecular target: KRas G12C/Q61H double mutant (Homo sapiens (Human), UniProt P01116, G12C/Q61H); settings: 20 μM compound
KRas G12C/Q61H double mutant, sequence (P01116-2 other isoform, or with tags, fused parts or gaps G12C/Q61H): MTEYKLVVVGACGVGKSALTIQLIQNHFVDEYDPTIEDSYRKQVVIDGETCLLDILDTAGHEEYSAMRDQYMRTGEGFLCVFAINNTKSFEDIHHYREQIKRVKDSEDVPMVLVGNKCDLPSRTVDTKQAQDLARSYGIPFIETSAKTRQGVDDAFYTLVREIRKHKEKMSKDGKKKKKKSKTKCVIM
Outline: as §1

[5] = molecular target: KRas wild type (Homo sapiens (Human), UniProt P01116); settings: 20 μM compound
KRas wild type, sequence (P01116-2 other isoform, or with tags, fused parts or gaps): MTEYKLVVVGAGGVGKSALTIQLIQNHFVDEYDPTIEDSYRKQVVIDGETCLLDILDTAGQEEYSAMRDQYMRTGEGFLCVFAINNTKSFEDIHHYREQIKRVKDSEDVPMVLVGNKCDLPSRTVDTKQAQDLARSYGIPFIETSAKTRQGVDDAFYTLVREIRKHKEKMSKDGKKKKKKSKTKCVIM
Outline: as §1

[6] = molecular target: KRas G12C mutant (Homo sapiens (Human), UniProt P01116, G12C); settings: 20 μM compound
KRas G12C mutant, sequence (P01116-2 other isoform, or with tags, fused parts or gaps G12C): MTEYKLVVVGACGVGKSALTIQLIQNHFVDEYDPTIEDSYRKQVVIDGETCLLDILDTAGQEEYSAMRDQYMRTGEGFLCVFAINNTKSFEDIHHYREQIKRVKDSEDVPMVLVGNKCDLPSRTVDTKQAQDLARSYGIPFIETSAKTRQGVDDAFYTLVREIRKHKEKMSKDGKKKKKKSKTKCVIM
Outline: as §1

[7] = read-out: % Inhibition at 20 μM KRas G12D
[8] = read-out: % Inhibition at 20 μM KRas Q61H
[9] = read-out: % Inhibition at 20 μM KRas G12D Q61H
[10] = read-out: % Inhibition at 20 μM KRas G12C Q61H
[11] = read-out: % Inhibition at 20 μM KRas wild type
[12] = read-out: % Inhibition at 20 μM KRas G12C
[13] = KRas G12D, read-out: % Inhibition at 20 μM of K-Ras mutant and wild-type protein, KRas G12D
[14] = KRas Q61H, read-out: % Inhibition at 20 μM of K-Ras mutant and wild-type protein, KRas Q61H
[15] = KRas G12D/Q61H double mutant, read-out: % Inhibition at 20 μM of K-Ras mutant and wild-type protein, KRas G12D Q61H
[16] = KRas G12C/Q61H double mutant, read-out: % Inhibition at 20 μM of K-Ras mutant and wild-type protein, KRas G12C Q61H
[17] = KRas wild type, read-out: % Inhibition at 20 μM of K-Ras mutant and wild-type protein, KRas wild type
[18] = KRas G12C, read-out: % Inhibition at 20 μM of K-Ras mutant and wild-type protein, KRas G12C

SMILES	inhibition at 20 µM [1, 7]	inhibition at 20 µM [2, 8]	inhibition at 20 µM [3, 9]	inhibition at 20 µM [4, 10]	inhibition at 20 µM [5, 11]	inhibition at 20 µM [6, 12]	IC50 [3]	inhibition at 20 µM [1, 13]	inhibition at 20 µM [2, 14]	inhibition at 20 µM [3, 15]	inhibition at 20 µM [4, 16]	inhibition at 20 µM [5, 17]	inhibition at 20 µM [6, 18]
Cc1cnc(-c2ccccn2)nc1NC(=O)C1CCCc2cc(C#N)ccc21 (stereo not shown) [drawing 2827]	25 to 50%	51 to 75%	51 to 75%	51 to 75%	51 to 75%	25 to 50%	–	–	–	–	–	–	–
CN(C)Cc1ccc(F)c(-c2csc3c(O)nc(-c4ccccn4)nc23)c1 [drawing 2901]	51 to 75%	51 to 75%	25 to 50%	51 to 75%	51 to 75%	25 to 50%	11 to 30 µM	–	–	–	–	–	–
Oc1nc(-c2ccccn2)nc2cc(-c3ccncc3)sc12 [drawing 3561]	–	–	–	–	–	–	–	51 to 75%	25 to 50%	51 to 75%	25 to 50%	51 to 75%	25 to 50%
Oc1nc(-c2ccccn2)nc2cc(-c3ccccc3)sc12 [drawing 3562]	–	–	–	–	–	–	–	51 to 75%	25 to 50%	51 to 75%	25 to 50%	51 to 75%	25 to 50%
O=S1(=O)CCN(Cc2cccc(-c3csc4c(O)nc(-c5ccccn5)nc34)c2)CC1 [drawing 2864]	51 to 75%	51 to 75%	51 to 75%	51 to 75%	51 to 75%	25 to 50%	–	–	–	–	–	–	–
O=C(c1csc2c(O)nc(-c3ccccn3)nc12)N1CCC(c2cccc(O)c2)C1 (stereo not shown) [drawing 2840]	76 to 100%	76 to 100%	76 to 100%	76 to 100%	51 to 75%	51 to 75%	–	–	–	–	–	–	–
N#Cc1ccc(COCC(=O)Nc2nc(-c3ccccn3)nc3sccc23)cc1 [drawing 2799]	76 to 100%	76 to 100%	25 to 50%	76 to 100%	25 to 50%	25 to 50%	11 to 30 µM	–	–	–	–	–	–
CC1CN(c2ccccc2)CCN1C(=O)c1csc2c(O)nc(-c3ccccn3)nc12 (stereo not shown) [drawing 2761]	76 to 100%	76 to 100%	51 to 75%	76 to 100%	25 to 50%	51 to 75%	5 to 10 µM	–	–	–	–	–	–
Cc1cc2nc(-c3ccccn3)nc(N)c2s1 [drawing 2836]	51 to 75%	51 to 75%	51 to 75%	51 to 75%	25 to 50%	1 to 25%	–	–	–	–	–	–	–
Oc1nc(-c2ccccn2)nc2c(-c3ccc4c(c3)OCO4)csc12 [drawing 2879]	51 to 75%	51 to 75%	51 to 75%	51 to 75%	51 to 75%	25 to 50%	–	–	–	–	–	–	–
Cc1sc2c(O)nc(-c3ccccn3)nc2c1C(=O)N1CCN(c2ccccc2)CC1C (stereo not shown) [drawing 3509]	–	–	–	–	–	–	–	51 to 75%	51 to 75%	51 to 75%	51 to 75%	25 to 50%	51 to 75%
COc1ccc(CCC(=O)Nc2nc(-c3ccccn3)nc3sccc23)cn1 [drawing 3493]	–	–	–	–	–	–	–	51 to 75%	76 to 100%	51 to 75%	51 to 75%	25 to 50%	25 to 50%
COc1nc(-c2cn(C)cn2)nc2sc(-c3ccncc3)c(-c3ccccc3)c12 [drawing 3531]	–	–	–	–	–	–	–	25 to 50%	25 to 50%	25 to 50%	1 to 25%	1 to 25%	25 to 50%
COc1cc(-c2csc3c(O)nc(-c4ccccn4)nc23)cnc1C(F)(F)F [drawing 2884]	51 to 75%	51 to 75%	51 to 75%	51 to 75%	51 to 75%	51 to 75%	–	–	–	–	–	–	–
COc1ccc(F)cc1-c1csc2c(O)nc(-c3ccccn3)nc12 [drawing 2874]	51 to 75%	25 to 50%	51 to 75%	25 to 50%	25 to 50%	25 to 50%	–	–	–	–	–	–	–
Oc1nc(-c2ccccn2)nc2sc3c(c12)CCCNC3 [drawing 2852]	51 to 75%	25 to 50%	25 to 50%	25 to 50%	25 to 50%	51 to 75%	–	–	–	–	–	–	–
CC(C)COc1ccc(-c2csc3c(O)nc(-c4ccccn4)nc23)cn1 [drawing 2877]	51 to 75%	51 to 75%	51 to 75%	51 to 75%	51 to 75%	51 to 75%	–	–	–	–	–	–	–
Oc1nc(-c2ccccn2)nc2scc(Br)c12 [drawing 2703]	51 to 75%	76 to 100%	51 to 75%	51 to 75%	51 to 75%	25 to 50%	–	–	–	–	–	–	–
Oc1nc(-c2ccccn2)nc2c(C3CCCC3)csc12 [drawing 3495]	–	–	–	–	–	–	–	51 to 75%	51 to 75%	51 to 75%	51 to 75%	25 to 50%	25 to 50%
COCc1ccc(-c2csc3c(O)nc(-c4ccccn4)nc23)cc1F [drawing 2846]	51 to 75%	51 to 75%	51 to 75%	51 to 75%	25 to 50%	51 to 75%	–	–	–	–	–	–	–
Oc1nc(-c2ccccn2)nc2c(-c3cc(F)cc(F)c3)csc12 [drawing 2900]	51 to 75%	51 to 75%	51 to 75%	51 to 75%	25 to 50%	51 to 75%	> 30 µM	–	–	–	–	–	–
COc1nc(-c2ccccn2)nc2c(C3CCCC3)csc12 [drawing 3470]	–	–	–	–	–	–	–	25 to 50%	76 to 100%	51 to 75%	51 to 75%	25 to 50%	25 to 50%
Cn1nnc2ccc(-c3csc4c(O)nc(-c5ccccn5)nc34)cc21 [drawing 2861]	51 to 75%	51 to 75%	51 to 75%	51 to 75%	76 to 100%	1 to 25%	–	–	–	–	–	–	–
